Test results reported in paper PMC11995724, “Antibiotic target discovery by integrated phenotypic and activity-based profiling of electrophilic fragments” (Cell chemical biology, 2025).
Where a name gives a salt, the structure may show the parent alone.

assay: in vitro; settings: human, hek293t cells

With CC(Cl)C(=O)Nc1ccc(Cl)cc1F (stereo not drawn) [4-C14, 2-chloro-N-(4-chloro-2-fluorophenyl)propanamide] as the compound, how does the viability at 48 h, 25 µM read?
The viability at 48 h, 25 µM was 58.6%.

With COc1ccc(N(CC(F)(F)F)C(=O)CCl)cc1 [4-C15, 2-chloro-N-(4-methoxyphenyl)-N-(2,2,2-trifluoroethyl)acetamide] as the compound, how does the viability at 48 h, 25 µM read?
The viability at 48 h, 25 µM was 0.659%.

With CC(C)c1ccc(-c2cc(NC(=O)CCl)n(-c3ccccc3)n2)cc1 [4-C16, 2-chloro-N-{1-phenyl-3-[4-(propan-2-yl)phenyl]-1H-pyrazol-5-yl}acetamide] as the compound, how does the viability at 48 h, 25 µM read?
Its viability at 48 h, 25 µM is -0.013%.

With O=C(CCl)N(Cc1ccccc1)c1nc2c(s1)CCCC2 [4-C17, N-benzyl-2-chloro-N-(4,5,6,7-tetrahydro-1,3-benzothiazol-2-yl)acetamide] as the compound, how does the viability at 48 h, 25 µM read?
The viability at 48 h, 25 µM was 0.212%.

With COc1ccccc1N(CC(F)(F)F)C(=O)CCl [4-C18, 2-chloro-N-(2-methoxyphenyl)-N-(2,2,2-trifluoroethyl)acetamide] as the compound, how does the viability at 48 h, 25 µM read?
Its viability at 48 h, 25 µM is 7.84%.

With O=C(CCl)N1CCN(S(=O)(=O)c2cccc([N+](=O)[O-])c2)CC1 [4-C19, 2-chloro-1-[4-(3-nitrobenzenesulfonyl)piperazin-1-yl]ethan-1-one] as the compound, how does the viability at 48 h, 25 µM read?
The viability at 48 h, 25 µM was 1.45%.

For CCc1ccc(C(NC(=O)CCl)c2cccc(F)c2)cc1 (stereo not drawn) [4-C20, 2-chloro-N-[(4-ethylphenyl)(3-fluorophenyl)methyl]acetamide], which viability at 48 h, 25 µM is on record?
The viability at 48 h, 25 µM was 0.508%.

Which viability at 48 h, 25 µM does the source give for O=C(CCl)Nc1ccc(C(=O)O)cc1[N+](=O)[O-] [4-C21, 4-(2-chloroacetamido)-3-nitrobenzoic acid] here?
Its viability at 48 h, 25 µM is 63.3%.

With O=C(CCl)N1N=C(c2ccsc2)CC1c1cccc(F)c1 (stereo not drawn) [4-C22, 2-chloro-1-[5-(3-fluorophenyl)-3-(thiophen-3-yl)-4,5-dihydro-1H-pyrazol-1-yl]ethan-1-one] as the compound, how does the viability at 48 h, 25 µM read?
Its viability at 48 h, 25 µM is 0.063%.

With CN(CC(=O)Nc1ccc(Cl)cc1)C(=O)CCl [4-D03, 2-chloro-N-{[(4-chlorophenyl)carbamoyl]methyl}-N-methylacetamide] as the compound, how does the viability at 48 h, 25 µM read?
Its viability at 48 h, 25 µM is 0.468%.

With Cc1cccc(NC(=O)CCl)c1C [4-D04, 2-chloro-N-(2,3-dimethylphenyl)acetamide] as the compound, how does the viability at 48 h, 25 µM read?
Its viability at 48 h, 25 µM is 1.62%.

For CN(CC(=O)Nc1ccccc1Cl)C(=O)CCl [4-D05, 2-chloro-N-{[(2-chlorophenyl)carbamoyl]methyl}-N-methylacetamide], which viability at 48 h, 25 µM is on record?
Its viability at 48 h, 25 µM is 0.034%.

For CCn1c2ccccc2c2cc(NC(=O)CCl)ccc21 [4-D06, 2-chloro-N-(9-ethyl-9H-carbazol-3-yl)acetamide], which viability at 48 h, 25 µM is on record?
The viability at 48 h, 25 µM was 9.48%.

With CC1CCc2c(sc(NC(=O)CCl)c2C(=O)OC(C)C)C1 (stereo not drawn) [4-D07, propan-2-yl 2-(2-chloroacetamido)-6-methyl-4,5,6,7-tetrahydro-1-benzothiophene-3-carboxylate] as the compound, how does the viability at 48 h, 25 µM read?
The viability at 48 h, 25 µM was 73.7%.

Which viability at 48 h, 25 µM does the source give for O=C(CCl)Nc1cccc(S(=O)(=O)NC2=NCCCCC2)c1 [4-D08, N-{3-[(azepan-2-ylidene)sulfamoyl]phenyl}-2-chloroacetamide] here?
Its viability at 48 h, 25 µM is 1.32%.

For Cc1c(C#N)c(NC(=O)CCl)n(Cc2ccco2)c1C [4-D09, 2-chloro-N-{3-cyano-1-[(furan-2-yl)methyl]-4,5-dimethyl-1H-pyrrol-2-yl}acetamide], which viability at 48 h, 25 µM is on record?
The viability at 48 h, 25 µM was -0.0889%.

For Cc1ccc(Cl)c(NC(=O)CCl)c1Cl [4-D10, 2-chloro-N-(2,6-dichloro-3-methylphenyl)acetamide], which viability at 48 h, 25 µM is on record?
The viability at 48 h, 25 µM was 1.7%.

For CC(Cl)C(=O)Nc1ccccc1Cl (stereo not drawn) [4-D11, 2-chloro-N-(2-chlorophenyl)propanamide], which viability at 48 h, 25 µM is on record?
Its viability at 48 h, 25 µM is 97.8%.

For CC(C)CN(C(=O)CCl)C1CCS(=O)(=O)C1 (stereo not drawn) [4-D12, 2-chloro-N-(1,1-dioxo-1lambda6-thiolan-3-yl)-N-(2-methylpropyl)acetamide], which viability at 48 h, 25 µM is on record?
Its viability at 48 h, 25 µM is 2.44%.

For CC(C)c1cc(O)nc(N2CCC(NC(=O)CCl)C2)n1 (stereo not drawn) [4-D13, 2-chloro-N-{1-[4-hydroxy-6-(propan-2-yl)pyrimidin-2-yl]pyrrolidin-3-yl}acetamide], which viability at 48 h, 25 µM is on record?
The viability at 48 h, 25 µM was 2.02%.

For CC(Cl)C(=O)NCCc1cccs1 (stereo not drawn) [4-D14, 2-chloro-N-[2-(thiophen-2-yl)ethyl]propanamide], which viability at 48 h, 25 µM is on record?
Its viability at 48 h, 25 µM is 111%.

Which viability at 48 h, 25 µM does the source give for COc1ccc(NC(=O)CCl)cc1S(=O)(=O)N1CCOCC1 [4-D15, 2-chloro-N-[4-methoxy-3-(morpholine-4-sulfonyl)phenyl]acetamide] here?
The viability at 48 h, 25 µM was 0.627%.

For Cc1ccc(NC(=O)CN2CCN(C(=O)CCl)CC2)cc1 [4-D16, 2-[4-(2-chloroacetyl)piperazin-1-yl]-N-(4-methylphenyl)acetamide hydrochloride], which viability at 48 h, 25 µM is on record?
Its viability at 48 h, 25 µM is 0.854%.

For CC(Cl)C(=O)Nc1cc(Cl)cc(Cl)c1 (stereo not drawn) [4-D17, 2-chloro-N-(3,5-dichlorophenyl)propanamide], which viability at 48 h, 25 µM is on record?
Its viability at 48 h, 25 µM is 67.8%.

For O=C(CCl)NCC(=O)Nc1ccc(F)c(F)c1F [4-D18, 2-chloro-N-{[(2,3,4-trifluorophenyl)carbamoyl]methyl}acetamide], which viability at 48 h, 25 µM is on record?
Its viability at 48 h, 25 µM is 2.12%.

With Cc1cccc(Cc2cnc(NC(=O)C(C)Cl)s2)c1 (stereo not drawn) [4-D19, 2-chloro-N-{5-[(3-methylphenyl)methyl]-1,3-thiazol-2-yl}propanamide] as the compound, how does the viability at 48 h, 25 µM read?
Its viability at 48 h, 25 µM is 74.1%.

With CC(Cl)C(=O)NCC(=O)Nc1ccc(F)c(F)c1F (stereo not drawn) [4-D20, 2-chloro-N-{[(2,3,4-trifluorophenyl)carbamoyl]methyl}propanamide] as the compound, how does the viability at 48 h, 25 µM read?
The viability at 48 h, 25 µM was 118%.

For Cc1cccc(NC(=O)NC(=O)CCl)c1C [4-D21, 3-(2-chloroacetyl)-1-(2,3-dimethylphenyl)urea], which viability at 48 h, 25 µM is on record?
The viability at 48 h, 25 µM was 0.759%.

With O=C(CCl)NCc1cccc(NC(=O)C2CC2)c1 [4-D22, N-{3-[(2-chloroacetamido)methyl]phenyl}cyclopropanecarboxamide] as the compound, how does the viability at 48 h, 25 µM read?
The viability at 48 h, 25 µM was 1.24%.

With O=C(CCl)Nc1ccc(Cl)cc1F [4-E03, 2-chloro-N-(4-chloro-2-fluorophenyl)acetamide] as the compound, how does the viability at 48 h, 25 µM read?
The viability at 48 h, 25 µM was 0.433%.

With CC(C)CNC(=O)c1ccccc1NC(=O)CCl [4-E04, 2-(2-chloroacetamido)-N-(2-methylpropyl)benzamide] as the compound, how does the viability at 48 h, 25 µM read?
The viability at 48 h, 25 µM was 0.855%.

With COc1ccc(S(=O)(=O)N(C)C)cc1NC(=O)CCl [4-E05, 2-chloro-N-[5-(dimethylsulfamoyl)-2-methoxyphenyl]acetamide] as the compound, how does the viability at 48 h, 25 µM read?
Its viability at 48 h, 25 µM is 0.891%.

For CN(C(=O)CCl)c1c(N)n(Cc2ccccc2)c(=O)[nH]c1=O [4-E06, N-(6-amino-1-benzyl-2,4-dioxo-1,2,3,4-tetrahydropyrimidin-5-yl)-2-chloro-N-methylacetamide], which viability at 48 h, 25 µM is on record?
Its viability at 48 h, 25 µM is 22.8%.

With Cc1c(NC(=O)CCl)cccc1[N+](=O)[O-] [4-E07, 2-chloro-N-(2-methyl-3-nitrophenyl)acetamide] as the compound, how does the viability at 48 h, 25 µM read?
The viability at 48 h, 25 µM was 1.23%.

Which viability at 48 h, 25 µM does the source give for CC(Cl)C(=O)Nc1nc(-c2cccc([N+](=O)[O-])c2)cs1 (stereo not drawn) [4-E08, 2-chloro-N-[4-(3-nitrophenyl)-1,3-thiazol-2-yl]propanamide] here?
The viability at 48 h, 25 µM was 59.7%.

For CCN(CC)S(=O)(=O)c1cc(NC(=O)CCl)ccc1C [4-E09, 2-chloro-N-[3-(diethylsulfamoyl)-4-methylphenyl]acetamide], which viability at 48 h, 25 µM is on record?
The viability at 48 h, 25 µM was 0.544%.

Which viability at 48 h, 25 µM does the source give for CSC1=C(C#N)C2(CCCCC2)C(C#N)=C(NC(=O)CCl)N1 [4-E10, 2-chloro-N-[1,5-dicyano-4-(methylsulfanyl)-3-azaspiro[5.5]undeca-1,4-dien-2-yl]acetamide] here?
Its viability at 48 h, 25 µM is 0.534%.

Which viability at 48 h, 25 µM does the source give for CSc1ccccc1NC(=O)CCl [4-E11, 2-chloro-N-[2-(methylsulfanyl)phenyl]acetamide] here?
The viability at 48 h, 25 µM was 0.595%.

For CCn1c2ccccc2c2cc(NC(=O)C(C)Cl)ccc21 (stereo not drawn) [4-E12, 2-chloro-N-(9-ethyl-9H-carbazol-3-yl)propanamide], which viability at 48 h, 25 µM is on record?
Its viability at 48 h, 25 µM is 55.6%.

For CC(C)C(NC(=O)CCl)c1ccc(F)cc1 (stereo not drawn) [4-E13, 2-chloro-N-[1-(4-fluorophenyl)-2-methylpropyl]acetamide], which viability at 48 h, 25 µM is on record?
Its viability at 48 h, 25 µM is 1.68%.

For CC(Cl)C(=O)N1CCN(c2ccccc2)CC1 (stereo not drawn) [4-E14, 2-chloro-1-(4-phenylpiperazin-1-yl)propan-1-one hydrochloride], which viability at 48 h, 25 µM is on record?
Its viability at 48 h, 25 µM is 66.3%.

For COc1ccc(NC(=O)CCl)cc1S(=O)(=O)N(C)C [4-E15, 2-chloro-N-[3-(dimethylsulfamoyl)-4-methoxyphenyl]acetamide], which viability at 48 h, 25 µM is on record?
Its viability at 48 h, 25 µM is 0.774%.

With O=C(CCl)N1CCCSc2ccccc21 [4-E16, 2-chloro-1-(2,3,4,5-tetrahydro-1,5-benzothiazepin-5-yl)ethan-1-one] as the compound, how does the viability at 48 h, 25 µM read?
The viability at 48 h, 25 µM was 0.703%.

With CCOC(=O)c1ccc(NC(=O)CCl)cc1 [4-E17, ethyl 4-(2-chloroacetamido)benzoate] as the compound, how does the viability at 48 h, 25 µM read?
The viability at 48 h, 25 µM was 0.753%.

For O=C(CCl)NS(=O)(=O)c1ccc(Cl)cc1 [4-E18, 2-chloro-N-(4-chlorobenzenesulfonyl)acetamide], which viability at 48 h, 25 µM is on record?
The viability at 48 h, 25 µM was 79.9%.

Which viability at 48 h, 25 µM does the source give for CN(CC(=O)Nc1ccc(Cl)c(C(F)(F)F)c1)C(=O)CCl [4-E19, 2-chloro-N-({[4-chloro-3-(trifluoromethyl)phenyl]carbamoyl}methyl)-N-methylacetamide] here?
Its viability at 48 h, 25 µM is 0.379%.

With COC(=O)c1c(NC(=O)CCl)sc(Cl)c1-c1ccccc1 [4-E20, methyl 5-chloro-2-(2-chloroacetamido)-4-phenylthiophene-3-carboxylate] as the compound, how does the viability at 48 h, 25 µM read?
Its viability at 48 h, 25 µM is 0.576%.

For CC(C)OC(=O)c1c(NC(=O)CCl)sc2c1CCCC2 [4-E21, propan-2-yl 2-(2-chloroacetamido)-4,5,6,7-tetrahydro-1-benzothiophene-3-carboxylate], which viability at 48 h, 25 µM is on record?
The viability at 48 h, 25 µM was 112%.

For O=C(CCl)N1N=C(c2cccc(F)c2)CC1c1cccs1 (stereo not drawn) [4-E22, 2-chloro-1-[3-(3-fluorophenyl)-5-(thiophen-2-yl)-4,5-dihydro-1H-pyrazol-1-yl]ethan-1-one], which viability at 48 h, 25 µM is on record?
Its viability at 48 h, 25 µM is 0.0972%.

Which viability at 48 h, 25 µM does the source give for COc1ccc(CN(C)C(=O)CCl)cc1F [4-F03, 2-chloro-N-[(3-fluoro-4-methoxyphenyl)methyl]-N-methylacetamide] here?
Its viability at 48 h, 25 µM is 0.725%.

With CCc1cccc(NC(=O)CCl)c1 [4-F04, 2-chloro-N-(3-ethylphenyl)acetamide] as the compound, how does the viability at 48 h, 25 µM read?
Its viability at 48 h, 25 µM is 0.569%.

Which viability at 48 h, 25 µM does the source give for CC(=O)c1cccc(S(=O)(=O)N2CCN(C(=O)CCl)CC2)c1 [4-F05, 1-[4-(3-acetylbenzenesulfonyl)piperazin-1-yl]-2-chloroethan-1-one] here?
Its viability at 48 h, 25 µM is 0.228%.

For CC(C)c1ccccc1NC(=O)CCl [4-F06, 2-chloro-N-[2-(propan-2-yl)phenyl]acetamide], which viability at 48 h, 25 µM is on record?
The viability at 48 h, 25 µM was 1.92%.

For COC(=O)c1c(-c2ccccc2Cl)csc1NC(=O)CCl [4-F07, methyl 2-(2-chloroacetamido)-4-(2-chlorophenyl)thiophene-3-carboxylate], which viability at 48 h, 25 µM is on record?
The viability at 48 h, 25 µM was 5.7%.
